Assay results from patent US10696707B2, “Polyene macrolide derivative” (Shionogi & Co., Ltd., priority 2014, dated 2020).

Test system: red blood cells (5% RBC suspension)
Experiment: Test Example 2-1: in vitro hemolytic activity test (upper limit 50, 80, 100 or 200 μmol/L)
Assay type: cell-based
Conditions: Erythrocyte, 1 h; hemolysis method 50 (upper concentration 50 μmol/L); 5% RBC suspension, 37° C., one hour; read-out: hemolysis IC50
Protocol: Nephrotoxic potentials of the compounds of the present invention except the compounds whose X is —N(R^F)—CO—X^1 and X^1 is the group represented by formula (III) and T is —N(R^a5)— were investigated by in vitro hemolytic activity test under the condition, in that, the upper limit was 50 μmol/L, 80 μmol/L, 100 μmol/L, or 200 μmol/L as the required concentration to 50% of hemolysis (IC50).
Defibrinated sterile blood was centrifuged at 700×g for 3 minutes and, and the supernatant was removed for 100% of red blood cells. After the cleaning with physiological saline, the washed blood cells was suspended in the medium (Earle's balanced salt sodium, bicarbonate, 0.1 g/L L-glutamine without phenol red), and was diluted by 5% (5% RBC suspension).
The washed blood was diluted by 5% in water for injection (solution of complete hemolysis), and was used as the indication of optical density for complete hemolysis.
The compounds of the present invention solution in DMSO (several and doubling dilutions starting from 2.5 mmol/L, 4 mmol/L, 5 mmol/L, or 10 mmol/L), DMSO as the negative control, and Amphotericin B as the positive control were used, and each 5 μL of these was added in to a well of V-form 96 well type microplate.
Finally, the maximum concentration of the compounds of the present invention solution in DMSO was 50 μmol/L, 80 μmol/L, 100 μmol/L, or 200 μmol/L by adding 245 μL of the medium or 5% RBC suspension into the well.
Two hundred fifty μL of the solution of complete hemolysis was added into another well and the microplate was incubated at 37° C. in 5% of CO2 concentration for an hour.
After the incubation, each 100 μL of supernatants in wells was collected by centrifugation of the microplate at 300×g for 5 minutes and was located on a well of flat-form 96 well type microplate. An absorbance of each supernatant was measured at wavelength of 540 nm.
Percent hemolysis was calculated by using the followed equation. The required concentration to 50% of hemolysis (IC50) was calculated based on the percent hemolysis. […] Hemolysis (%)=(CR−VM)×100÷(VL−VR) Where:
CR: Absorbance of 5% RBC suspension incubated with the compounds of the present invention solution in DMSO
VM: Absorbance of medium incubated with the compounds of the present invention solution in DMSO
VL: Absorbance of solution of complete hemolysis
VR: Absorbance of 5% RBC suspension incubated with DMSO
The “hemolysis method” in the table means any tests the upper concentration of above IC50 are 50 μmol/L, 80 μmol/L, 100 μmol/L or 200 μmol/L. The “>50”, “>80”, “>100” or “>200” in the table means above IC50 value exceeded the each upper concentration.

`C[C@@H]1[C@H](O)[C@@H](C)/C=C/C=C/C=C/C=C/C=C/C=C/C=C/[C@H](O[C@@H]2O[C@H](C)[C@@H](O)[C@H](N)[C@@H]2O)C[C@@H]2O[C@](O)(C[C@@H](O)C[C@@H](O)[C@H](O)CC[C@@H](O)C[C@@H](O)CC(=O)O[C@H]1C)C[C@H](O)[C@H]2NC(=O)NC1CC1` [I-41] gave an IC50 of over 50 µM.

Same assay, conditions: Erythrocyte, 1 h; hemolysis method 100 (upper concentration 100 μmol/L); 5% RBC suspension, 37° C., one hour; read-out: hemolysis IC50

`C[C@@H]1[C@H](O)[C@@H](C)/C=C/C=C/C=C/C=C/C=C/C=C/C=C/[C@H](O[C@@H]2O[C@H](C)[C@@H](O)[C@H](N)[C@@H]2O)C[C@@H]2O[C@](O)(C[C@@H](O)C[C@@H](O)[C@H](O)CC[C@@H](O)C[C@@H](O)CC(=O)O[C@H]1C)C[C@H](O)[C@H]2NC(=O)NCCc1c[nH]cn1` [I-5] gave an IC50 of 94 µM.

Same assay, conditions: hemolysis method 50 (upper concentration 50 μmol/L); 5% RBC suspension, 37° C., one hour; read-out: hemolysis IC50

`C[C@@H]1[C@H](O)[C@@H](C)/C=C/C=C/C=C/C=C/C=C/C=C/C=C/[C@H](O[C@@H]2O[C@H](C)[C@@H](O)[C@H](N)[C@@H]2O)C[C@@H]2O[C@](O)(C[C@@H](O)C[C@@H](O)[C@H](O)CC[C@@H](O)C[C@@H](O)CC(=O)O[C@H]1C)C[C@H](O)[C@H]2NC(=O)NCCOCCOCCO` [I-11] and `C[C@@H]1[C@H](O)[C@@H](C)/C=C/C=C/C=C/C=C/C=C/C=C/C=C/[C@H](O[C@@H]2O[C@H](C)[C@@H](O)[C@H](N)[C@@H]2O)C[C@@H]2O[C@](O)(C[C@@H](O)C[C@@H](O)[C@H](O)CC[C@@H](O)C[C@@H](O)CC(=O)O[C@H]1C)C[C@H](O)[C@H]2NC(=O)NCCCC(=O)O` [I-38] cannot be ordered by IC50: over 50 µM for the first, over 50 µM for the second.

Same assay, conditions: hemolysis method 80 (upper concentration 80 μmol/L); 5% RBC suspension, 37° C., one hour; read-out: hemolysis IC50

`C[C@@H]1[C@H](O)[C@@H](C)/C=C/C=C/C=C/C=C/C=C/C=C/C=C/[C@H](O[C@@H]2O[C@H](C)[C@@H](O)[C@H](N)[C@@H]2O)C[C@@H]2O[C@](O)(C[C@@H](O)C[C@@H](O)[C@H](O)CC[C@@H](O)C[C@@H](O)CC(=O)O[C@H]1C)C[C@H](O)[C@H]2NC(=O)N1CCC(N(C)C)C1` (single isomer, unassigned) [I-49] and `C[C@@H]1[C@H](O)[C@@H](C)/C=C/C=C/C=C/C=C/C=C/C=C/C=C/[C@H](O[C@@H]2O[C@H](C)[C@@H](O)[C@H](N)[C@@H]2O)C[C@@H]2O[C@](O)(C[C@@H](O)C[C@@H](O)[C@H](O)CC[C@@H](O)C[C@@H](O)CC(=O)O[C@H]1C)C[C@H](O)[C@H]2NC(=O)NCCN(C)C` [I-51] cannot be ordered by IC50: over 80 µM for the first, over 80 µM for the second.

`C[C@@H]1[C@H](O)[C@@H](C)/C=C/C=C/C=C/C=C/C=C/C=C/C=C/[C@H](O[C@@H]2O[C@H](C)[C@@H](O)[C@H](N)[C@@H]2O)C[C@@H]2O[C@](O)(C[C@@H](O)C[C@@H](O)[C@H](O)CC[C@@H](O)C[C@@H](O)CC(=O)O[C@H]1C)C[C@H](O)[C@H]2NC(=O)N1CCC(N(C)C)C1` (single isomer, unassigned) [I-50] and `C[C@@H]1[C@H](O)[C@@H](C)/C=C/C=C/C=C/C=C/C=C/C=C/C=C/[C@H](O[C@@H]2O[C@H](C)[C@@H](O)[C@H](N)[C@@H]2O)C[C@@H]2O[C@](O)(C[C@@H](O)C[C@@H](O)[C@H](O)CC[C@@H](O)C[C@@H](O)CC(=O)O[C@H]1C)C[C@H](O)[C@H]2NC(=O)NC1CCN(C)CC1` [I-48] cannot be ordered by IC50: over 80 µM for the first, over 80 µM for the second.

`C[C@@H]1[C@H](O)[C@@H](C)/C=C/C=C/C=C/C=C/C=C/C=C/C=C/[C@H](O[C@@H]2O[C@H](C)[C@@H](O)[C@H](N)[C@@H]2O)C[C@@H]2O[C@](O)(C[C@@H](O)C[C@@H](O)[C@H](O)CC[C@@H](O)C[C@@H](O)CC(=O)O[C@H]1C)C[C@H](O)[C@H]2NC(=O)NCCc1ccccn1` [I-15] and `C[C@@H]1[C@H](O)[C@@H](C)/C=C/C=C/C=C/C=C/C=C/C=C/C=C/[C@H](O[C@@H]2O[C@H](C)[C@@H](O)[C@H](N)[C@@H]2O)C[C@@H]2O[C@](O)(C[C@@H](O)C[C@@H](O)[C@H](O)CC[C@@H](O)C[C@@H](O)CC(=O)O[C@H]1C)C[C@H](O)[C@H]2NC(=O)NCC[N+](C)(C)C` [I-53] cannot be ordered by IC50: over 80 µM for the first, over 80 µM for the second.

`C[C@@H]1[C@H](O)[C@@H](C)/C=C/C=C/C=C/C=C/C=C/C=C/C=C/[C@H](O[C@@H]2O[C@H](C)[C@@H](O)[C@H](N)[C@@H]2O)C[C@@H]2O[C@](O)(C[C@@H](O)C[C@@H](O)[C@H](O)CC[C@@H](O)C[C@@H](O)CC(=O)O[C@H]1C)C[C@H](O)[C@H]2NC(=O)N1CCN(c2ccccc2)CC1` [I-17] and `C[C@@H]1[C@H](O)[C@@H](C)/C=C/C=C/C=C/C=C/C=C/C=C/C=C/[C@H](O[C@@H]2O[C@H](C)[C@@H](O)[C@H](N)[C@@H]2O)C[C@@H]2O[C@](O)(C[C@@H](O)C[C@@H](O)[C@H](O)CC[C@@H](O)C[C@@H](O)CC(=O)O[C@H]1C)C[C@H](O)[C@H]2NC(=O)N1CCN(CCCOc2ccccc2)CC1` [I-24] cannot be ordered by IC50: over 80 µM for the first, over 80 µM for the second.

Compared with `C[C@@H]1[C@H](O)[C@@H](C)/C=C/C=C/C=C/C=C/C=C/C=C/C=C/[C@H](O[C@@H]2O[C@H](C)[C@@H](O)[C@H](N)[C@@H]2O)C[C@@H]2O[C@](O)(C[C@@H](O)C[C@@H](O)[C@H](O)CC[C@@H](O)C[C@@H](O)CC(=O)O[C@H]1C)C[C@H](O)[C@H]2NC(=O)N1CCOCCOCCOCCOCCOCC1` [I-18], `C[C@@H]1[C@H](O)[C@@H](C)/C=C/C=C/C=C/C=C/C=C/C=C/C=C/[C@H](O[C@@H]2O[C@H](C)[C@@H](O)[C@H](N)[C@@H]2O)C[C@@H]2O[C@](O)(C[C@@H](O)C[C@@H](O)[C@H](O)CC[C@@H](O)C[C@@H](O)CC(=O)O[C@H]1C)C[C@H](O)[C@H]2NC(=O)N1CCCN(CCCN2CCOCC2)CC1` [I-23] is lower in IC50: over 80 µM for the first, 79 µM for the second. The second is the more potent here.

`C[C@@H]1[C@H](O)[C@@H](C)/C=C/C=C/C=C/C=C/C=C/C=C/C=C/[C@H](O[C@@H]2O[C@H](C)[C@@H](O)[C@H](N)[C@@H]2O)C[C@@H]2O[C@](O)(C[C@@H](O)C[C@@H](O)[C@H](O)CC[C@@H](O)C[C@@H](O)CC(=O)O[C@H]1C)C[C@H](O)[C@H]2NC(=O)NCC(F)(F)F` [I-21] and `C[C@@H]1[C@H](O)[C@@H](C)/C=C/C=C/C=C/C=C/C=C/C=C/C=C/[C@H](O[C@@H]2O[C@H](C)[C@@H](O)[C@H](N)[C@@H]2O)C[C@@H]2O[C@](O)(C[C@@H](O)C[C@@H](O)[C@H](O)CC[C@@H](O)C[C@@H](O)CC(=O)O[C@H]1C)C[C@H](O)[C@H]2NC(=O)N(CCO)CCO` [I-39] cannot be ordered by IC50: over 80 µM for the first, over 80 µM for the second.

In the case of `C[C@@H]1[C@H](O)[C@@H](C)/C=C/C=C/C=C/C=C/C=C/C=C/C=C/[C@H](O[C@@H]2O[C@H](C)[C@@H](O)[C@H](N)[C@@H]2O)C[C@@H]2O[C@](O)(C[C@@H](O)C[C@@H](O)[C@H](O)CC[C@@H](O)C[C@@H](O)CC(=O)O[C@H]1C)C[C@H](O)[C@H]2NC(=O)N1CCCCC1c1ccccc1` (stereo partly shown) [I-22], the IC50 is reported as over 80 µM.

Same assay, conditions: hemolysis method 100 (upper concentration 100 μmol/L); 5% RBC suspension, 37° C., one hour; read-out: hemolysis IC50

Going from `C[C@@H]1[C@H](O)[C@@H](C)/C=C/C=C/C=C/C=C/C=C/C=C/C=C/[C@H](O[C@@H]2O[C@H](C)[C@@H](O)[C@H](N)[C@@H]2O)C[C@@H]2O[C@](O)(C[C@@H](O)C[C@@H](O)[C@H](O)CC[C@@H](O)C[C@@H](O)CC(=O)O[C@H]1C)C[C@H](O)[C@H]2NC(=O)NC(CO)Cc1c[nH]cn1` (stereo partly shown) [I-6] to `C[C@@H]1[C@H](O)[C@@H](C)/C=C/C=C/C=C/C=C/C=C/C=C/C=C/[C@H](O[C@@H]2O[C@H](C)[C@@H](O)[C@H](N)[C@@H]2O)C[C@@H]2O[C@](O)(C[C@@H](O)C[C@@H](O)[C@H](O)CC[C@@H](O)C[C@@H](O)CC(=O)O[C@H]1C)C[C@H](O)[C@H]2NC(=O)NCCn1cncn1` [I-9], the IC50 rises from 75 µM to over 100 µM.

Going from `C[C@@H]1[C@H](O)[C@@H](C)/C=C/C=C/C=C/C=C/C=C/C=C/C=C/[C@H](O[C@@H]2O[C@H](C)[C@@H](O)[C@H](N)[C@@H]2O)C[C@@H]2O[C@](O)(C[C@@H](O)C[C@@H](O)[C@H](O)CC[C@@H](O)C[C@@H](O)CC(=O)O[C@H]1C)C[C@H](O)[C@H]2NC(=O)NCCCN(C)C` [I-7] to `C[C@@H]1[C@H](O)[C@@H](C)/C=C/C=C/C=C/C=C/C=C/C=C/C=C/[C@H](O[C@@H]2O[C@H](C)[C@@H](O)[C@H](N)[C@@H]2O)C[C@@H]2O[C@](O)(C[C@@H](O)C[C@@H](O)[C@H](O)CC[C@@H](O)C[C@@H](O)CC(=O)O[C@H]1C)C[C@H](O)[C@H]2NC(=O)N(C)C` [I-10], the IC50 rises from 81 µM to over 100 µM. The first is the more potent here.

With `C[C@@H]1[C@H](O)[C@@H](C)/C=C/C=C/C=C/C=C/C=C/C=C/C=C/[C@H](O[C@@H]2O[C@H](C)[C@@H](O)[C@H](N)[C@@H]2O)C[C@@H]2O[C@](O)(C[C@@H](O)C[C@@H](O)[C@H](O)CC[C@@H](O)C[C@@H](O)CC(=O)O[C@H]1C)C[C@H](O)[C@H]2NC(=O)NCCCN1CCOCC1` [I-8] the IC50 was 96 µM.
